According to ChEMBL document CHEMBL4043168, “The design and SAR of a novel series of 2-aminopyridine based LRRK2 inhibitors” (Bioorg Med Chem Lett, 2017):

Experiments:
[1] = biological target: Mitogen-activated protein kinase kinase kinase 2 (Homo sapiens) (UniProt Q9Y2U5); assay: Inhibition of MAP3K2 conserved Lys2 (DIKGANILR) in human PBMC at 1 uM
[2] = biological target: Mitogen-activated protein kinase 9 (Homo sapiens) (UniProt P45984); assay: Inhibition of JNK2 conserved Lys2 (DLKPSNIVVK) in human PBMC at 1 uM
[3] = biological target: Tyrosine-protein kinase ABL1 (Homo sapiens) (UniProt P00519); assay: Inhibition of ABL labeling at activation Loop (LMTGDTYTAHAGAKFPIK) in human PBMC at 0.1 uM
[4] = biological target: Cyclin-dependent kinase 17 (Homo sapiens) (UniProt Q00537); assay: Inhibition of PCTAIRE2 conserved Lys2 (DLKPQNLLINEK) in human PBMC at 1 uM
[5] = biological target: Receptor-interacting serine/threonine-protein kinase 3 (Homo sapiens) (UniProt Q9Y572); assay: Inhibition of RIPK3 conserved Lys2 (DLKPSNVLLDPELHVK) in human PBMC at 1 uM
[6] = biological target: Tyrosine-protein kinase HCK (Homo sapiens) (UniProt P08631); assay: Inhibition of HCK activation Loop (EGAKFPIKWTAPEAINFGSFTIK) in human PBMC at 0.1 uM
[7] = biological target: Tyrosine-protein kinase JAK2 (Homo sapiens) (UniProt O60674); assay: Inhibition of JAK2 domain2 activation Loop (IGDFGLTKVLPQDKEYYK) in human PBMC at 1 uM
[8] = biological target: RAC-alpha serine/threonine-protein kinase (Homo sapiens) (UniProt P31749); assay: Inhibition of AKT1 labeling at ATP binding site (GTFGKVILVK) in human PBMC at 1 uM
[9] = biological target: Serine/threonine-protein kinase Nek4 (Homo sapiens) (UniProt P51957); assay: Inhibition of NEK4 conserved Lys2 (DLKTQNVFLTR) in human PBMC at 1 uM
[10] = biological target: Tyrosine-protein kinase JAK1 (Homo sapiens) (UniProt P23458); assay: Inhibition of JAK1 domain1 (QLASALSYLEDKDLVHGNVCTKNLLLAR) in human PBMC at 1 uM
[11] = biological target: Ribosomal protein S6 kinase alpha-4 (Homo sapiens) (UniProt O75676); assay: Inhibition of MSK2 domain1 conserved Lys2 (DIKLENILLDSNGHVVLTDFGLSK) in human PBMC at 0.1 uM
[12] = biological target: Cyclin-dependent kinase 5 (Homo sapiens) (UniProt Q00535); assay: Inhibition of CDK5 labeling at conserved Lys1 (NRETHEIVALKR) in human PBMC at 1 uM
[13] = biological target: Serine/threonine-protein kinase WNK1 (Homo sapiens) (UniProt Q9H4A3); assay: Inhibition of Wnk1 activation Loop (IGDLGLATLKR) in human PBMC at 0.1 uM; conditions: pooled result: one value given for 4 cell lines, strains, targets or settings
[14] = biological target: Mitogen-activated protein kinase 13 (Homo sapiens) (UniProt O15264); assay: Inhibition of p38d conserved Lys2 (DLKPGNLAVNEDCELK) in human PBMC at 0.1 uM
[15] = biological target: Serine/threonine-protein kinase 25 (Homo sapiens) (UniProt O00506); assay: Inhibition of YSK1 conserved Lys2 (DIKAANVLLSEQGDVK) in human PBMC at 0.1 uM
[16] = biological target: Dual specificity mitogen-activated protein kinase kinase 7 (Homo sapiens) (UniProt O14733); assay: Inhibition of MAP2K7 conserved Lys2 (DVKPSNILLDER) in human PBMC at 1 uM
[17] = biological target: Serine/threonine-protein kinase Nek8 (Homo sapiens) (UniProt Q86SG6); assay: Inhibition of NEK8 conserved Lys2 (DLKTQNILLDK) in human PBMC at 0.1 uM
[18] = biological target: Phosphatidylinositol 5-phosphate 4-kinase type-2 alpha (Homo sapiens) (UniProt P48426); assay: Inhibition of PIP4K2A ATP binding site (AKELPTLKDNDFINEGQK) in human PBMC at 0.1 uM
[19] = biological target: Serine/threonine-protein kinase 24 (Homo sapiens) (UniProt Q9Y6E0); assay: Inhibition of MST3 conserved Lys2 (DIKAANVLLSEHGEVK) in human PBMC at 1 uM
[20] = biological target: Interleukin-1 receptor-associated kinase 1 (Homo sapiens) (UniProt P51617); assay: Inhibition of IRAK1 conserved Lys2 (AIQFLHQDSPSLIHGDIKSSNVLLDER) in human PBMC at 1 uM
[21] = biological target: Leucine-rich repeat serine/threonine-protein kinase 2 (Homo sapiens, UniProt Q5S007); assay: Inhibition of LRRK2 conserved Lys2 (DLKPHNVLLFTLYPNAAIIAK) in human PBMC at 0.1 uM
[22] = biological target: Mitogen-activated protein kinase kinase kinase 11 (Homo sapiens) (UniProt Q16584); assay: Inhibition of MLK3 conserved Lys2 (DLKSNNILLLQPIESDDMEHK) in human PBMC at 0.1 uM
[23] = biological target: Mitogen-activated protein kinase kinase kinase 15 (Homo sapiens) (UniProt Q6ZN16); assay: Inhibition of MAP3K15 conserved Lys1 (IAIKEIPER) in human PBMC at 0.1 uM
[24] = Intrinsic clearance in rat liver microsomes; format: ADME, microsome; conditions: read-out: CLH (converted)
[25] = biological target: PAN2-PAN3 deadenylation complex subunit PAN3 (Homo sapiens) (UniProt Q58A45); assay: Inhibition of PAN3 Protein Kinase Domain (VMDPTKILITGK) in human PBMC at 1 uM

Mitogen-activated protein kinase 9 (Homo sapiens), sequence (P45984 whole entry, looked up): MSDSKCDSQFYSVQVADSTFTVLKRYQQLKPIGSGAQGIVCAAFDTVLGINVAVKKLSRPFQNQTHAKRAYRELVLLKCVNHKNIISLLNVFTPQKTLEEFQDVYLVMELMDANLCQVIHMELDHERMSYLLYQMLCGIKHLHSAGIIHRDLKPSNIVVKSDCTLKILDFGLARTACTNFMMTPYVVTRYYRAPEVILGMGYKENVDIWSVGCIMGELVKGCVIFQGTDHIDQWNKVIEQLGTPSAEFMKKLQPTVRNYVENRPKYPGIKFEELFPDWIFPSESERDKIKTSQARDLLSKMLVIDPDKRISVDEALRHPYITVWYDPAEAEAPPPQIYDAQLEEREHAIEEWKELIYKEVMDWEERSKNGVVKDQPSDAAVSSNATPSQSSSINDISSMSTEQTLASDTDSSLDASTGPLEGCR
Leucine-rich repeat serine/threonine-protein kinase 2, sequence (Q5S007 whole entry): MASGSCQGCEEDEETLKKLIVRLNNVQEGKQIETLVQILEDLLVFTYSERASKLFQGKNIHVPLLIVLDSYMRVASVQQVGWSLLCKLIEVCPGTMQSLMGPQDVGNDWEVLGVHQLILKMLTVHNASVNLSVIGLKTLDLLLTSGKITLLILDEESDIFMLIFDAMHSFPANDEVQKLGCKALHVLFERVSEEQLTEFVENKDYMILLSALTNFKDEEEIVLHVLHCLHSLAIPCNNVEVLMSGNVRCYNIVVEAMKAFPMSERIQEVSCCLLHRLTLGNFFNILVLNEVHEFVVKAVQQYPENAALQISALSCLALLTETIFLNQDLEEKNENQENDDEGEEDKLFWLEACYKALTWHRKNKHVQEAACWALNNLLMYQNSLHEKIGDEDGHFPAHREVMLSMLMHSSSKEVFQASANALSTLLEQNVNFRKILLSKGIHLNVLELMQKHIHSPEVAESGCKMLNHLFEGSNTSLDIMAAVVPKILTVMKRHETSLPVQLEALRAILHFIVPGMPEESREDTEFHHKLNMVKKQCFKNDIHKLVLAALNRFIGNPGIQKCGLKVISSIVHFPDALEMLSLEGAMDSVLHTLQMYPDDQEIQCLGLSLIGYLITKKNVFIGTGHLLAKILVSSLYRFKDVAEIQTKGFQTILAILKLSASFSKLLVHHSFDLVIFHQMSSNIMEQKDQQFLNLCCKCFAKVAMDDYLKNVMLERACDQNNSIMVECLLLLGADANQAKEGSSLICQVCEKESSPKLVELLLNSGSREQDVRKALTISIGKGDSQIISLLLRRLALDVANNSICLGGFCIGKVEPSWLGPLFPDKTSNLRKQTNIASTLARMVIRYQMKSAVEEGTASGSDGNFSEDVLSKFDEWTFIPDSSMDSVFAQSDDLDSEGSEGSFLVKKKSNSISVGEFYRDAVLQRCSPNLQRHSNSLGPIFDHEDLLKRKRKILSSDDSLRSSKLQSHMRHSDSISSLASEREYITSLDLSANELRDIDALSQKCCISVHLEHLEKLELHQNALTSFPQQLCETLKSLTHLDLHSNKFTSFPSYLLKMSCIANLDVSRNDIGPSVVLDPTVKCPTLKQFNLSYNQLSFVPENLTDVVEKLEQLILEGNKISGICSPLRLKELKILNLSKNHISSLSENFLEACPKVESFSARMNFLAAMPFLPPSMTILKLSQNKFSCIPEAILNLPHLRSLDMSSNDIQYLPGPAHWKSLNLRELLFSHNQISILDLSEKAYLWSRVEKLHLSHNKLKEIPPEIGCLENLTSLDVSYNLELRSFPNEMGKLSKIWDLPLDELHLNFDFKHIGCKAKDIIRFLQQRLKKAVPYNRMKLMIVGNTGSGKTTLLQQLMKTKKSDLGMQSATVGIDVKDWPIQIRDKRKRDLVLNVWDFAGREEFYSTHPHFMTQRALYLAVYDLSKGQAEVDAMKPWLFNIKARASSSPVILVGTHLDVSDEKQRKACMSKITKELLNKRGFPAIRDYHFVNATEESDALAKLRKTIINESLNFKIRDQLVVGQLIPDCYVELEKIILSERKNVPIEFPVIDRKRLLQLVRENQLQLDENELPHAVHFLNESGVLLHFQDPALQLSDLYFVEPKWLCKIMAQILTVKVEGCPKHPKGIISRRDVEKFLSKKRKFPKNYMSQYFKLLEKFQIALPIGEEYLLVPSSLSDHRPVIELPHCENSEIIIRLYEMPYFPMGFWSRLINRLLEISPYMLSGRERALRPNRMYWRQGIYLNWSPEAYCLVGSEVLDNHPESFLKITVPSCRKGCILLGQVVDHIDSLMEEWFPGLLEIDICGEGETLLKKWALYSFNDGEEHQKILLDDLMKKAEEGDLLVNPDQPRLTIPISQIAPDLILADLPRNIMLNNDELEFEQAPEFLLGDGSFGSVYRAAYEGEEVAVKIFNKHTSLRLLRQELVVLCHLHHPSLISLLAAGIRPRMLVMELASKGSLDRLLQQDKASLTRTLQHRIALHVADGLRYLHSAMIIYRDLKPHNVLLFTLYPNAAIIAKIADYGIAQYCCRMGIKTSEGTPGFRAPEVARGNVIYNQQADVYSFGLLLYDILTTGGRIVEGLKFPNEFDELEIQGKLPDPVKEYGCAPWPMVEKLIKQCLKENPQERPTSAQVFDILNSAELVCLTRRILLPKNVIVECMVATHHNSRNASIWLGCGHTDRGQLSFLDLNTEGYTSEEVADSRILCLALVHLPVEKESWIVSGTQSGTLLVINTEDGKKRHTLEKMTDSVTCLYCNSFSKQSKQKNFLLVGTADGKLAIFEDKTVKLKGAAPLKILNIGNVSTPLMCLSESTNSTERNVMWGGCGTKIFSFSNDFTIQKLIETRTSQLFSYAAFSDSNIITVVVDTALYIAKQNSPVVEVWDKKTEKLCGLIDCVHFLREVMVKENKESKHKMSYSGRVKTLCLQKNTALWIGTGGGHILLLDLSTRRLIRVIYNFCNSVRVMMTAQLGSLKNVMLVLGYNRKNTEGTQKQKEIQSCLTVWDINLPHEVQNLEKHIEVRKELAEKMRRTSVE
Serine/threonine-protein kinase Nek8 (Homo sapiens), sequence (Q86SG6 whole entry): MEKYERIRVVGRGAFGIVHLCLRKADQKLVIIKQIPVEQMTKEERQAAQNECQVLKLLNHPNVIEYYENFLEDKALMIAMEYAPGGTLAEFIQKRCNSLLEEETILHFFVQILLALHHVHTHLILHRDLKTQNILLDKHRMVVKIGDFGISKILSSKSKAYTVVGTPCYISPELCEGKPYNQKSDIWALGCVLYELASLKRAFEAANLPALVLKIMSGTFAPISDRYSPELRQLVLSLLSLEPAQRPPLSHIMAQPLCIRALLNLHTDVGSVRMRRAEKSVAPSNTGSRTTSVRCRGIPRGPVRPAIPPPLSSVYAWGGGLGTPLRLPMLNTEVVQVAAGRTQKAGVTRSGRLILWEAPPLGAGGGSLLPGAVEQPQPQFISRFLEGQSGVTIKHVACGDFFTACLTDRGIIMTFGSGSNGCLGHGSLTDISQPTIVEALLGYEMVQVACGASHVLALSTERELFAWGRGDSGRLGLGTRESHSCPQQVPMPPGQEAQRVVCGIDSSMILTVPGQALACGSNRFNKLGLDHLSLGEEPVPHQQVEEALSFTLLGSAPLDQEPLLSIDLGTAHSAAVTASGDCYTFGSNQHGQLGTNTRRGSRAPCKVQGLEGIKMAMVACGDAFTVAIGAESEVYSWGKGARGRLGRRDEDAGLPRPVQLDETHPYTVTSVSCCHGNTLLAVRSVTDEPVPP
Cyclin-dependent kinase 17 (Homo sapiens), sequence (Q00537 whole entry, looked up): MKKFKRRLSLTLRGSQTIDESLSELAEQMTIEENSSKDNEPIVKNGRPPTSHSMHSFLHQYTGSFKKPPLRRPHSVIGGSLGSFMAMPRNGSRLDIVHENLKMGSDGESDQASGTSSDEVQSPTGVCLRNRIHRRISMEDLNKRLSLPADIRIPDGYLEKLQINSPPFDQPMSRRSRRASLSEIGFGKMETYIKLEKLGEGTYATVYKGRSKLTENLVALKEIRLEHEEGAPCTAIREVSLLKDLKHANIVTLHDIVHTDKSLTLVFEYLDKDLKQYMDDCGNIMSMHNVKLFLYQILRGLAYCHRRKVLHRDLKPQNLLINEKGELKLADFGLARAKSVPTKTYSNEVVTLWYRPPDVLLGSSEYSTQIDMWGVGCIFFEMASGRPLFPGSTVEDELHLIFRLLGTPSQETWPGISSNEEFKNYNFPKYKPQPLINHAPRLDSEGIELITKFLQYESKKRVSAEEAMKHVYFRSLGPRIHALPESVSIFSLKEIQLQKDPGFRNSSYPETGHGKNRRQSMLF
Interleukin-1 receptor-associated kinase 1 (Homo sapiens), sequence (P51617 whole entry, looked up): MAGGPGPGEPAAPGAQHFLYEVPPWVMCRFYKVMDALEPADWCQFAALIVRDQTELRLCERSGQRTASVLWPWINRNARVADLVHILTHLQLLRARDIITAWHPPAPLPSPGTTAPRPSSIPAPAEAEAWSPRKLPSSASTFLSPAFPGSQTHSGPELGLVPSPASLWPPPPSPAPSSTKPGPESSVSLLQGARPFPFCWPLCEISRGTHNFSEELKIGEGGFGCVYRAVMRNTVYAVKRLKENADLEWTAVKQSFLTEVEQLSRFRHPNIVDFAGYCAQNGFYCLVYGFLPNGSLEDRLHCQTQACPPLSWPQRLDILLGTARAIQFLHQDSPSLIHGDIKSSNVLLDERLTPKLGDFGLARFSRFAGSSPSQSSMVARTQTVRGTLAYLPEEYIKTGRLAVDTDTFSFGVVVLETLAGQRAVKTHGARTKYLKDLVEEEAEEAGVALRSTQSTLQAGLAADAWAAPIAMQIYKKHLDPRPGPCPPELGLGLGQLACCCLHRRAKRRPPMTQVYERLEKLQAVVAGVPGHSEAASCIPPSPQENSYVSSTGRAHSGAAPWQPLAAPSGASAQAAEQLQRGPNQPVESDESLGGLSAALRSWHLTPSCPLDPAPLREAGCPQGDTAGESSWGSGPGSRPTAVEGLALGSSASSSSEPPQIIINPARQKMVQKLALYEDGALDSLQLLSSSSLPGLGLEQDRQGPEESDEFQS

CC(C)n1cc(-c2cc(-c3ccc(CN4CCOCC4)cc3)cnc2N)nn1
inhibition [1]: 29.2% | inhibition [2]: 23.9% | inhibition [3]: -5.2% | inhibition [4]: 7.7% | inhibition [5]: -7.3% | inhibition [6]: -7.4% | inhibition [7]: 5.2% | inhibition [8]: 27.4% | inhibition [9]: -1.7% | inhibition [10]: 1.8% | inhibition [11]: 31.2% | inhibition [12]: 1.9% | inhibition [13]: 21.4% | inhibition [14]: 26.4% | inhibition [15]: 0.5% | inhibition [16]: 18.6% | inhibition [17]: 0.2% | inhibition [18]: 10.3% | inhibition [19]: 7.2% | inhibition [20]: 17.3% | inhibition [21]: 8.6% | inhibition [22]: 13.8% | inhibition [23]: -0.5% | CLint scaled [24]: 157 mL/min/kg | inhibition [25]: 0.1%
